Consider eleven molecules from ChEMBL document CHEMBL5674860, “Optimized Dual-Glo Assay to identify co-culture-induced drug vulnerabilities in 3D CRC models” (2024).

Common to all, as to type: functional, Homo sapiens
Holding throughout (set-up): dose or concentration left out as unconfirmed

In assay [1] the test system is Colon cancer organoid. Briefly: Optimized Dual-Glo assay to identify co-culture induced drug vulnerabilities using donated chemical probes and chemogenomics kinase set in O14 CRC organoid and F14 CAF mono and co-culture. […] Cell viability is reported both mono and co-culture models.
The subject of assay [2] is Colon cancer organoid. Description: Optimized Dual-Glo assay to identify co-culture induced drug vulnerabilities using donated chemical probes and chemogenomics kinase set in O06 CRC organoid and F06 CAF mono and co-culture. […] Cell viability is reported both mono and co-culture models.
Assay [3] concerns Colon cancer organoid. Briefly: Optimized Dual-Glo assay to identify co-culture induced drug vulnerabilities using donated chemical probes and chemogenomics kinase set in O20 CRC organoid and F20 CAF mono and co-culture. […] Cell viability is reported both mono and co-culture models.
The mark [4] stands for this setting: Culture type Co-Culture, Transduced with Lucferase2-P2A-EGFP lentivirus.
[5] abbreviates: Culture type Co-Culture, Transduced with Renilla-dsRed lentivirus.
Where [6] appears, read: Culture type Mono-Culture, Transduced with Lucferase2-P2A-EGFP lentivirus.
The mark [7] stands for this setting: Culture type Mono-Culture, Transduced with Renilla-dsRed lentivirus.

`Cc1c(NC(=O)c2ccc(C(C)(C)C)cc2)cccc1-c1cn(C)c(=O)c(Nc2ccc(C(=O)N3CCOCC3)cc2)n1`: the “Cell Viability” value with Colon cancer organoid [1] (setting [4]) was determined as 85.4676%; in the assay with Colon cancer organoid [1] (setting [5]), 81.7664%; in the assay on Colon cancer organoid [1] (setting [6]), 100.184%; in the assay on Colon cancer organoid [1] (setting [7]) it was 91.8671%; in the assay on Colon cancer organoid [2] (setting [4]), 105.279%; with Colon cancer organoid [2] (setting [5]) it was 113.435%. In addition, the “Cell Viability” value is 83.7541% in the assay with Colon cancer organoid [2] (setting [6]); 97.4758% with Colon cancer organoid [2] (setting [7]); 109.579% in the assay on Colon cancer organoid [3] (setting [4]); 88.3582% with Colon cancer organoid [3] (setting [5]); 122.68% in the assay on Colon cancer organoid [3] (setting [6]); 92.088% with Colon cancer organoid [3] (setting [7]).

For the molecule `CCCCNc1ncc(-c2ccc(CN3CCOCC3)cn2)c(N[C@H]2CC[C@H](O)CC2)n1`, the “Cell Viability” value with Colon cancer organoid [1] (setting [4]) is recorded as 23.305%; with Colon cancer organoid [1] (setting [5]) it was 148.151%; with Colon cancer organoid [1] (setting [6]) it was 59.2421%; in the assay with Colon cancer organoid [1] (setting [7]), 71.142%; in the assay with Colon cancer organoid [2] (setting [4]), 22.8495%; in the assay with Colon cancer organoid [2] (setting [5]), 123.664%. Moreover, the “Cell Viability” value with Colon cancer organoid [2] (setting [6]) was 12.6023%; in the assay on Colon cancer organoid [2] (setting [7]) it was 77.4775%; with Colon cancer organoid [3] (setting [4]) it was 8.774%; in the assay on Colon cancer organoid [3] (setting [5]) it was 223.767%; in the assay with Colon cancer organoid [3] (setting [6]), 10.8517%; in the assay on Colon cancer organoid [3] (setting [7]), 82.0591%.

For the molecule `CC(C)NC(=O)N1CC[C@H](NC2=Nc3cc(F)ccc3N(CC(F)F)c3ccc(Cl)cc32)C1`, the “Cell Viability” value in the assay with Colon cancer organoid [1] (setting [4]) is on record as 105.089%; in the assay with Colon cancer organoid [1] (setting [5]), 97.5374%; in the assay on Colon cancer organoid [1] (setting [6]), 82.3325%; in the assay with Colon cancer organoid [1] (setting [7]), 100.505%; in the assay on Colon cancer organoid [2] (setting [4]) it was 86.0472%; in the assay on Colon cancer organoid [2] (setting [5]), 89.4587%. In addition, the “Cell Viability” value in the assay on Colon cancer organoid [2] (setting [6]) was found to be 81.5326%; in the assay on Colon cancer organoid [2] (setting [7]), 94.1375%; with Colon cancer organoid [3] (setting [4]) it was 55.1322%; with Colon cancer organoid [3] (setting [5]), 142.836%; with Colon cancer organoid [3] (setting [6]) it was 58.5304%; in the assay with Colon cancer organoid [3] (setting [7]) it was 89.934%.

With `CN1CCN(Cc2cc(NC(=O)c3ccc4c(c3)CN(c3ccccc3)CC4)cc(C(F)(F)F)c2)CC1`, the “Cell Viability” value in the assay on Colon cancer organoid [1] (setting [4]) is reported as 99.7753%; in the assay with Colon cancer organoid [1] (setting [5]), 107.038%; with Colon cancer organoid [1] (setting [6]), 129.235%; in the assay with Colon cancer organoid [1] (setting [7]), 97.9505%; in the assay on Colon cancer organoid [2] (setting [4]) it was 103.855%; in the assay on Colon cancer organoid [2] (setting [5]) it was 89.7391%. The “Cell Viability” value with Colon cancer organoid [2] (setting [6]) is 108.49%; in the assay on Colon cancer organoid [2] (setting [7]) it was 105.467%; in the assay with Colon cancer organoid [3] (setting [4]), 90.0307%; in the assay on Colon cancer organoid [3] (setting [5]), 84.0381%; in the assay on Colon cancer organoid [3] (setting [6]), 92.4079%; with Colon cancer organoid [3] (setting [7]) it was 96.3902%.

Consider `Cc1cn(-c2cc(NC(=O)c3ccc4c(c3)CN(c3cncnc3)C[C@@H]4C)cc(C(F)(F)F)c2)cn1`, for which the “Cell Viability” value in the assay on Colon cancer organoid [1] (setting [4]) is reported as 105.46%; with Colon cancer organoid [1] (setting [5]), 96.2213%; in the assay on Colon cancer organoid [1] (setting [6]), 134.218%; with Colon cancer organoid [1] (setting [7]), 97.9875%; in the assay on Colon cancer organoid [2] (setting [4]), 85.5561%; in the assay with Colon cancer organoid [2] (setting [5]), 98.7805%. For the same molecule, the “Cell Viability” value with Colon cancer organoid [2] (setting [6]) amounted to 59.4105%; with Colon cancer organoid [2] (setting [7]), 105.628%; in the assay on Colon cancer organoid [3] (setting [4]), 88.3808%; with Colon cancer organoid [3] (setting [5]) it was 107.854%; in the assay on Colon cancer organoid [3] (setting [6]), 86.0975%; with Colon cancer organoid [3] (setting [7]) it was 111.829%.

For `Cc1cccc(-c2cnc3occ(-c4ccc(C(=O)O)c(C5CCCC5)c4)c3c2)c1`, the “Cell Viability” value was 114.736% in the assay with Colon cancer organoid [1] (setting [4]); 94.3308% with Colon cancer organoid [1] (setting [5]); 126.625% in the assay with Colon cancer organoid [1] (setting [6]); 90.9911% in the assay with Colon cancer organoid [1] (setting [7]); 95.2844% in the assay with Colon cancer organoid [2] (setting [4]); 61.5637% in the assay on Colon cancer organoid [2] (setting [5]). For the same molecule, the “Cell Viability” value in the assay on Colon cancer organoid [2] (setting [6]) is reported as 124.633%; in the assay with Colon cancer organoid [2] (setting [7]) it was 116.796%; with Colon cancer organoid [3] (setting [4]), 88.6258%; with Colon cancer organoid [3] (setting [5]), 133.429%; in the assay with Colon cancer organoid [3] (setting [6]), 94.6873%; with Colon cancer organoid [3] (setting [7]), 103.401%.

As for `O=C(NCCCN1CCOC1=O)c1cnc(NCc2cc(Br)ccc2Br)nc1NC1CCCC1`, the “Cell Viability” value turned out to be 74.8932% in the assay with Colon cancer organoid [1] (setting [4]); 125.798% with Colon cancer organoid [1] (setting [5]); 157.235% in the assay on Colon cancer organoid [1] (setting [6]); 136.857% in the assay on Colon cancer organoid [1] (setting [7]); 110.394% in the assay on Colon cancer organoid [2] (setting [4]); 154.807% in the assay with Colon cancer organoid [2] (setting [5]). Moreover, the “Cell Viability” value in the assay on Colon cancer organoid [2] (setting [6]) stood at 109.931%; in the assay on Colon cancer organoid [2] (setting [7]), 185.402%; in the assay on Colon cancer organoid [3] (setting [4]), 103.947%; in the assay on Colon cancer organoid [3] (setting [5]), 94.0994%; in the assay with Colon cancer organoid [3] (setting [6]), 97.7699%; in the assay on Colon cancer organoid [3] (setting [7]) it was 110.221%.

For the molecule `O=C(O)c1ccc(-c2coc3ncc(-c4ccccc4)cc23)cc1Cl`, the “Cell Viability” value in the assay on Colon cancer organoid [1] (setting [4]) was 199.753%; in the assay with Colon cancer organoid [1] (setting [5]) it was 90.4064%; in the assay on Colon cancer organoid [1] (setting [6]), 200.801%; with Colon cancer organoid [1] (setting [7]), 87.3818%; in the assay with Colon cancer organoid [2] (setting [4]) it was 226.279%; in the assay with Colon cancer organoid [2] (setting [5]), 119.386%. Moreover, the “Cell Viability” value in the assay with Colon cancer organoid [2] (setting [6]) is listed as 202.946%; in the assay on Colon cancer organoid [2] (setting [7]) it was 112.766%; in the assay with Colon cancer organoid [3] (setting [4]), 189.357%; with Colon cancer organoid [3] (setting [5]) it was 126.188%; with Colon cancer organoid [3] (setting [6]), 202.493%; in the assay with Colon cancer organoid [3] (setting [7]), 116.18%.

As to `c1ccc(C2CCN(c3cnc4c(N5CCOCC5)nccn34)CC2)cc1`, the “Cell Viability” value with Colon cancer organoid [1] (setting [4]) turned out to be 111.149%; in the assay with Colon cancer organoid [1] (setting [5]) it was 110.22%; with Colon cancer organoid [1] (setting [6]) it was 155.031%; with Colon cancer organoid [1] (setting [7]), 89.751%; in the assay on Colon cancer organoid [2] (setting [4]), 98.2025%; with Colon cancer organoid [2] (setting [5]), 98.7191%. The “Cell Viability” value in the assay with Colon cancer organoid [2] (setting [6]) is on record as 229.272%; with Colon cancer organoid [2] (setting [7]), 111.241%; in the assay on Colon cancer organoid [3] (setting [4]), 90.2822%; in the assay with Colon cancer organoid [3] (setting [5]), 108.246%; with Colon cancer organoid [3] (setting [6]) it was 142.742%; in the assay on Colon cancer organoid [3] (setting [7]), 115.191%.

With `COc1ccccc1C(=O)Nc1cc2c(cc1N1CCNCC1C)n(C)c(=O)n2C` (configuration not stated), the “Cell Viability” value in the assay on Colon cancer organoid [1] (setting [4]) was determined as 109.979%; in the assay on Colon cancer organoid [1] (setting [5]), 135.305%; in the assay with Colon cancer organoid [1] (setting [6]), 100.033%; with Colon cancer organoid [1] (setting [7]), 95.8386%; in the assay with Colon cancer organoid [2] (setting [4]), 112.155%; in the assay on Colon cancer organoid [2] (setting [5]) it was 138.916%. The “Cell Viability” value in the assay with Colon cancer organoid [2] (setting [6]) is on record as 92.5462%; in the assay on Colon cancer organoid [2] (setting [7]) it was 113.336%; with Colon cancer organoid [3] (setting [4]), 130.677%; in the assay with Colon cancer organoid [3] (setting [5]), 107.173%; in the assay on Colon cancer organoid [3] (setting [6]) it was 124.631%; with Colon cancer organoid [3] (setting [7]), 104.05%.

Take `COc1cccc2c1C(=O)c1c(O)c3c(c(O)c1C2=O)CC(O)(C(=O)CO)CC3OC1CC(N)C(O)C(C)O1.Cl` (configuration not stated): the “Cell Viability” value in the assay on Colon cancer organoid [1] (setting [4]) is recorded as 1.614%; in the assay with Colon cancer organoid [1] (setting [5]), 163.438%; in the assay with Colon cancer organoid [1] (setting [6]), 2.622%; in the assay on Colon cancer organoid [1] (setting [7]), 97.5605%; in the assay with Colon cancer organoid [2] (setting [4]) it was 14.9439%; with Colon cancer organoid [2] (setting [5]), 235.56%. Further, the “Cell Viability” value came out at 8.313% in the assay on Colon cancer organoid [2] (setting [6]); 104.821% in the assay on Colon cancer organoid [2] (setting [7]); 5.379% in the assay with Colon cancer organoid [3] (setting [4]); 237.178% in the assay on Colon cancer organoid [3] (setting [5]); 7.074% with Colon cancer organoid [3] (setting [6]); 81.7547% in the assay with Colon cancer organoid [3] (setting [7]).
